In patent US20230089715A1, “MASITINIB FOR THE TREATMENT OF A MULTIPLE SCLEROSIS PATIENT SUBPOPULATION” (AB SCIENCE, priority 2020, published 2023):

Tested on: patients with progressive multiple sclerosis (PPMS or non-active SPMS)
Test: Study AB07002: randomized, double-blind, placebo-controlled phase 3 study, overall EDSS change from baseline
Format: in vivo, human
Design: key to LSM EDSS, MAS (overall EDSS change from baseline): LS mean EDSS change from baseline; positive value = worsening
Settings: 4.5 mg/kg/day oral; for ΔEDSS (between group difference, treatment-effect vs placebo) / LSM EDSS, MAS (overall EDSS change from baseline) / R % (relative difference in ΔEDSS with respect to full analysis dataset): 96 weeks; for treatment-effect with respect to placebo (EDSS): non-active SPMS
Protocol: An international, multicenter, randomized, double-blind, placebo-controlled phase 3 study was conducted with the objective to evaluate oral masitinib at a dose of 4.5 mg/kg/day as a treatment for progressive multiple sclerosis (progressive MS), as defined hereinabove. […] Eligible patients were treated for 96 weeks with masitinib at a dose of 4.5 mg/kg/day (mg per kilo body weight per day) or with placebo. Primary endpoint was overall EDSS change from baseline using a repeated analysis of covariance model (i.e., ANCOVA GEE model on all measurements from week 12 (W12) to week 96 (W96)). Results are expressed as least-squares means difference, illustrating the progression of EDSS score, that is to say the change over time in the EDSS score or in other words the difference between the EDSS score at baseline and the EDSS score after treatment with masitinib or with placebo (a positive value indicates a worsening of the patient). Treatment-effect is reported as between-group difference (ΔLSM, negative value indicates a beneficial effect of treatment with masitinib as compared to treatment with placebo). […] Patients suffering from a disease other than MS that would better explain their neurological clinical signs and symptoms and/or lesions observed with magnetic resonance imaging (“MRI lesions”) were excluded. Subpopulation analyses of primary endpoint data from study AB07002 assessed the impact of the clinical markers ‘time from onset’ with respect to baseline (i.e., date of treatment initiation), derived from the estimated date of first clinical MS symptom(s), or ‘time from diagnosis’ with respect to baseline (i.e., date of treatment initiation), on masitinib efficacy in patients with progressive MS (see Example 3). ‘Time from onset’ is derived from the date (year/month/day, year/month, or year) of first clinical symptom(s) with duration calculated from date of treatment initiation. The date of first symptom(s) is typically determined retrospectively from medical history, for example from medical records and patient/caregiver historical recall of MS related symptoms following a clinically definite diagnosis. Imputation of missing data can be handled using various methods, one example of which is the following approach: if the information regarding day is missing, the day is considered to be the last day of the month; if the day and month are missing, the day is considered to be the last day of June. ‘Time from diagnosis’ of progressive MS, is ideally based on a clinically definite diagnosis of progressive MS as determined by a MS specialist neurologist. In practice it is derived from the date (year/month/day, year/month, or year) of first clinically definite diagnosis of progressive MS, i.e., PPMS or non-active SPMS, with duration calculated from date of treatment initiation. At the time of MS diagnosis, a provisional disease course should be specified (relapsing-remitting, primary progressive, or secondary progressive) and whether the course is active or not (non-active) and progressive or not based on the previous year's history. The phenotype should be periodically re-evaluated based on accumulated information. Comparison of subpopulation analyses with respect to the corresponding full analysis dataset (see Table 4) is reported as relative difference in ΔEDSS (R %). A large positive R % value indicates a subpopulation that receives greater benefit from masitinib treatment, while a negative R % value indicates a diminished treatment-effect or lack of discernable treatment-effect in the subpopulation.

[1] = nSPMS, T(diag) > 2 Y and T(onset) > 5 Y

In the case of `Cc1ccc(NC(=O)c2ccc(CN3CCN(C)CC3)cc2)cc1Nc1nc(-c2cccnc2)cs1` [masitinib, 4-(4-methylpiperazin-1-ylmethyl)-N-[4-methyl-3-(4-pyridin-3ylthiazol-2-ylamino)phenyl]benzamide], the “ΔEDSS (between group difference, treatment-effect vs placebo)” value (Progressive MS, T(diag) ≤ 1 Y) is reported as 0.261, the “LSM EDSS, MAS (overall EDSS change from baseline)” value (Progressive MS, T(diag) ≤ 2 Y) is reported as 0.163 and the “LSM EDSS, MAS (overall EDSS change from baseline)” value (Progressive MS, T(diag) ≤ 3 Y) is reported as 0.056. The “ΔEDSS (between group difference, treatment-effect vs placebo)” value (Progressive MS, T(diag) ≤ 3 Y) was 0.053, the “LSM EDSS, MAS (overall EDSS change from baseline)” value (Progressive MS, T(diag) ≤ 4 Y) was 0.075 and the “ΔEDSS (between group difference, treatment-effect vs placebo)” value (Progressive MS, T(diag) ≤ 4 Y) was −0.028. The “LSM EDSS, MAS (overall EDSS change from baseline)” value (Progressive MS, T(onset) > 1 Y) was 0.012, the “R % (relative difference in ΔEDSS with respect to full analysis dataset)” value (Progressive MS, T(onset) > 1 Y) was −5% and the “ΔEDSS (between group difference, treatment-effect vs placebo)” value (Progressive MS, T(onset) > 1 Y) was −0.094. For the same compound, the “LSM EDSS, MAS (overall EDSS change from baseline)” value (Progressive MS, T(onset) > 2 Y) was 0.004, the “R % (relative difference in ΔEDSS with respect to full analysis dataset)” value (Progressive MS, T(onset) > 2 Y) was 1% and the “ΔEDSS (between group difference, treatment-effect vs placebo)” value (Progressive MS, T(onset) > 2 Y) was −0.100. For the same compound, the “LSM EDSS, MAS (overall EDSS change from baseline)” value (Progressive MS, T(onset) > 3 Y) was −0.010, the “R % (relative difference in ΔEDSS with respect to full analysis dataset)” value (Progressive MS, T(onset) > 3 Y) was 20% and the “ΔEDSS (between group difference, treatment-effect vs placebo)” value (Progressive MS, T(onset) > 3 Y) was −0.119. The “LSM EDSS, MAS (overall EDSS change from baseline)” value (Progressive MS, T(onset) > 4 Y) was −0.027, the “R % (relative difference in ΔEDSS with respect to full analysis dataset)” value (Progressive MS, T(onset) > 4 Y) was 29% and the “ΔEDSS (between group difference, treatment-effect vs placebo)” value (Progressive MS, T(onset) > 4 Y) was −0.128. The “LSM EDSS, MAS (overall EDSS change from baseline)” value (Progressive MS, T(onset) > 5 Y) was −0.031, the “ΔEDSS (between group difference, treatment-effect vs placebo)” value (Progressive MS, T(onset) > 5 Y) was −0.156 and the “R % (relative difference in ΔEDSS with respect to full analysis dataset)” value (Progressive MS, T(onset) > 5 Y, 4.5 mg/kg/day) was 58%. The “LSM EDSS, MAS (overall EDSS change from baseline)” value (Progressive MS, T(onset) ≤ 3 Y) was 0.106, the “ΔEDSS (between group difference, treatment-effect vs placebo)” value (Progressive MS, T(onset) ≤ 3 Y) was 0.346 and the “LSM EDSS, MAS (overall EDSS change from baseline)” value (Progressive MS, T(onset) ≤ 4 Y) was −0.000. For the same compound, the “ΔEDSS (between group difference, treatment-effect vs placebo)” value (Progressive MS, T(onset) ≤ 4 Y) was 0.146, the “LSM EDSS, MAS (overall EDSS change from baseline)” value (Progressive MS, T(onset) ≤ 5 Y) was 0.259 and the “LSM EDSS, MAS (overall EDSS change from baseline)” value (Progressive MS, complement T(diag) ≤ 2 Y or T(onset) ≤ 5 Y) was 0.173. The “LSM EDSS, MAS (overall EDSS change from baseline)” value (Progressive MS, full analysis dataset) was 0.008, the “ΔEDSS (between group difference, treatment-effect vs placebo)” value (Progressive MS, full analysis dataset, 4.5 mg/kg/day) was −0.099 and the “ΔEDSS (between group difference, treatment-effect vs placebo)” value (Progressive MS, full analysis dataset, listed as Masitinib, 4.5 mg/kg/day) was “significant slowing of EDSS progression”. The “LSM EDSS, MAS (overall EDSS change from baseline)” value (nSPMS, T(diag) > 1 Y) was −0.039, the “R % (relative difference in ΔEDSS with respect to full analysis dataset)” value (nSPMS, T(diag) > 1 Y) was 6% and the “ΔEDSS (between group difference, treatment-effect vs placebo)” value (nSPMS, T(diag) > 1 Y) was −0.101. The “LSM EDSS, MAS (overall EDSS change from baseline)” value [1] was −0.051, the “ΔEDSS (between group difference, treatment-effect vs placebo)” value [1] was −0.118 and the “R % (relative difference in ΔEDSS with respect to full analysis dataset)” value (nSPMS, T(diag) > 2 Y and T(onset) > 5 Y, 4.5 mg/kg/day) was 24%. The “LSM EDSS, MAS (overall EDSS change from baseline)” value (nSPMS, T(diag) > 2 Y) was −0.039, the “R % (relative difference in ΔEDSS with respect to full analysis dataset)” value (nSPMS, T(diag) > 2 Y) was 7% and the “LSM EDSS, MAS (overall EDSS change from baseline)” value (nSPMS, T(diag) > 3 Y) was −0.045. For the same compound, the “R % (relative difference in ΔEDSS with respect to full analysis dataset)” value (nSPMS, T(diag) > 3 Y) was 13%, the “LSM EDSS, MAS (overall EDSS change from baseline)” value (nSPMS, T(diag) > 4 Y) was −0.050 and the “R % (relative difference in ΔEDSS with respect to full analysis dataset)” value (nSPMS, T(diag) > 4 Y) was 29%. For the same compound, the “ΔEDSS (between group difference, treatment-effect vs placebo)” value (nSPMS, T(diag) > 4 Y) was −0.123, the “LSM EDSS, MAS (overall EDSS change from baseline)” value (nSPMS, T(diag) ≤ 4 Y) was 0.036 and the “ΔEDSS (between group difference, treatment-effect vs placebo)” value (nSPMS, T(diag) ≤ 4 Y) was −0.004. The “LSM EDSS, MAS (overall EDSS change from baseline)” value (nSPMS, T(onset) > 1 Y) was −0.035, the “R % (relative difference in ΔEDSS with respect to full analysis dataset)” value (nSPMS, T(onset) > 1 Y) was 0% and the “ΔEDSS (between group difference, treatment-effect vs placebo)” value (nSPMS, T(onset) > 1 Y) was −0.095. For the same compound, the “LSM EDSS, MAS (overall EDSS change from baseline)” value (nSPMS, T(onset) > 2 Y) was −0.035, the “R % (relative difference in ΔEDSS with respect to full analysis dataset)” value (nSPMS, T(onset) > 2 Y) was 0% and the “ΔEDSS (between group difference, treatment-effect vs placebo)” value (nSPMS, T(onset) > 2 Y) was −0.095. For the same compound, the “LSM EDSS, MAS (overall EDSS change from baseline)” value (nSPMS, T(onset) > 3 Y) was −0.037, the “R % (relative difference in ΔEDSS with respect to full analysis dataset)” value (nSPMS, T(onset) > 3 Y) was 7% and the “ΔEDSS (between group difference, treatment-effect vs placebo)” value (nSPMS, T(onset) > 3 Y) was −0.102. For the same compound, the “LSM EDSS, MAS (overall EDSS change from baseline)” value (nSPMS, T(onset) > 4 Y) was −0.040, the “R % (relative difference in ΔEDSS with respect to full analysis dataset)” value (nSPMS, T(onset) > 4 Y) was 16% and the “ΔEDSS (between group difference, treatment-effect vs placebo)” value (nSPMS, T(onset) > 4 Y) was −0.110. For the same compound, the “LSM EDSS, MAS (overall EDSS change from baseline)” value (nSPMS, T(onset) > 5 Y) was −0.050, the “R % (relative difference in ΔEDSS with respect to full analysis dataset)” value (nSPMS, T(onset) > 5 Y) was 23% and the “LSM EDSS, MAS (overall EDSS change from baseline)” value (nSPMS, full analysis dataset) was −0.035. The “ΔEDSS (between group difference, treatment-effect vs placebo)” value (nSPMS, full analysis dataset, 4.5 mg/kg/day) was −0.095, the “ΔEDSS (between group difference, treatment-effect vs placebo)” value (nSPMS, full analysis dataset, listed as Masitinib, 4.5 mg/kg/day) was “significant slowing of EDSS progression” and the “treatment-effect with respect to placebo (EDSS)” value (time from diagnosis to treatment initiation of no more than 2 year) was “no discernable treatment-effect”. The “treatment-effect with respect to placebo (EDSS)” value (time from onset to treatment initiation of no more than 5 year) was “no discernable treatment-effect”.
